{"source": "the kinase profiling compilation of Christmann-Franck et al. (2016)", "test_in_all_cases": "radiometric filter-binding kinase assay, Kinase HotSpot", "details_in_all_cases": "compound 0.5 µM; ATP 10 µM", "key": {"ABL2 (human)": {"molecular_target": "ABL2 (human) (UniProt P42684)"}, "AKT3 (human)": {"molecular_target": "AKT3 (human) (UniProt Q9Y243)"}, "ALK (human)": {"molecular_target": "ALK (human) (UniProt Q9UM73)"}, "CAMK2A (human)": {"molecular_target": "CAMK2A (human) (UniProt Q9UQM7)"}, "CDK5 CDK5R1 p25 (human)": {"molecular_target": "CDK5 CDK5R1 p25 (human) (UniProt Q00535+Q15078)"}, "CDK6 CCND3 (human)": {"molecular_target": "CDK6 CCND3 (human) (UniProt P30281+Q00534)"}, "CDK9 CCNT1 (human)": {"molecular_target": "CDK9 CCNT1 (human) (UniProt P50750+O60563)"}, "CHEK2 (human)": {"molecular_target": "CHEK2 (human) (UniProt O96017)"}, "CSNK1A1 (human)": {"molecular_target": "CSNK1A1 (human) (UniProt P48729)"}, "DAPK2 (human)": {"molecular_target": "DAPK2 (human) (UniProt Q9UIK4)"}, "EPHA7 (human)": {"molecular_target": "EPHA7 (human) (UniProt Q15375)", "sequence (Q15375 whole entry, looked up)": "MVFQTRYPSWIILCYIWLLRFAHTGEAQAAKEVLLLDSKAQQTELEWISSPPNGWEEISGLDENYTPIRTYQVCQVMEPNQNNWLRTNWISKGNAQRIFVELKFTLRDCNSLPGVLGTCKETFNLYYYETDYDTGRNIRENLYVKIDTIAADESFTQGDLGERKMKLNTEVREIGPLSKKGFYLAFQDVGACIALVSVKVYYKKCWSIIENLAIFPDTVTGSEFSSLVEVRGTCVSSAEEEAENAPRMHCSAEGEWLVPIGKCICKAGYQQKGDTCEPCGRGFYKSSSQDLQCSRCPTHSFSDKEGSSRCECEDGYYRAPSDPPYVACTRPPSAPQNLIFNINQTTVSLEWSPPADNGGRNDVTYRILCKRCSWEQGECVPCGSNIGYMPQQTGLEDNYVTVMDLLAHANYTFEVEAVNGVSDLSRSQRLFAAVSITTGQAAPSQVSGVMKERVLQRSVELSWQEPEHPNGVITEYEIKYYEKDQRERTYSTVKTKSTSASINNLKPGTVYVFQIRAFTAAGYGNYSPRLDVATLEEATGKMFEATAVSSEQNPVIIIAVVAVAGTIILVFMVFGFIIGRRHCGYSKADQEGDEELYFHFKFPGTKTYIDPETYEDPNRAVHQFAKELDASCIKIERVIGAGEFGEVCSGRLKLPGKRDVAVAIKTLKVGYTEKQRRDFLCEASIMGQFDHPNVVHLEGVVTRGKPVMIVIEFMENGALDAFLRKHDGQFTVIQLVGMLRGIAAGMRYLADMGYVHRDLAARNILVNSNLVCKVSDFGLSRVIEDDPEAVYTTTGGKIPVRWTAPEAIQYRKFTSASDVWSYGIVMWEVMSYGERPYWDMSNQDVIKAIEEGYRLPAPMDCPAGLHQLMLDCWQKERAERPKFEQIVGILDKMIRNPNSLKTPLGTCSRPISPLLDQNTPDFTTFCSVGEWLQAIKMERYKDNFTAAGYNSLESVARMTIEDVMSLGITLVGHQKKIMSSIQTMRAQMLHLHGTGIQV"}, "EPHB2 (human)": {"molecular_target": "EPHB2 (human) (UniProt P29323)"}, "ERBB2 (human)": {"molecular_target": "ERBB2 (human) (UniProt P04626)"}, "FGR (human)": {"molecular_target": "FGR (human) (UniProt P09769)", "sequence (P09769 whole entry, looked up)": "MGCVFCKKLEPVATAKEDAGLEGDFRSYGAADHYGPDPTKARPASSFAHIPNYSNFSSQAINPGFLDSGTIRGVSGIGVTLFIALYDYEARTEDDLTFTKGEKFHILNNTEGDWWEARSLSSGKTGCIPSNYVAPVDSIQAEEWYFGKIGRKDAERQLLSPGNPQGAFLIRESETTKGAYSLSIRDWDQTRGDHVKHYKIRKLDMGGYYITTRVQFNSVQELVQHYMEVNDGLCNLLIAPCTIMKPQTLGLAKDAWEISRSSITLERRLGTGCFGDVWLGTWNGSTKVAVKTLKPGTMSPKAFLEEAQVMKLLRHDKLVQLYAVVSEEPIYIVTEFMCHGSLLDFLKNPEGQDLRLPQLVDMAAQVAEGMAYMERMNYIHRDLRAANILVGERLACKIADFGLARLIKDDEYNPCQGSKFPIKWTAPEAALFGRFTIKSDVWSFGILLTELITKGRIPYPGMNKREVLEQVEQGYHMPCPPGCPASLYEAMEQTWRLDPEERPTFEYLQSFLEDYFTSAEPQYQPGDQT"}, "GSK3A (human)": {"molecular_target": "GSK3A (human) (UniProt P49840)"}, "HCK (human)": {"molecular_target": "HCK (human) (UniProt P08631)"}, "HIPK4 (human)": {"molecular_target": "HIPK4 (human) (UniProt Q8NE63)"}, "MAP3K14 (human)": {"molecular_target": "MAP3K14 (human) (UniProt Q99558)"}, "MAP3K2 (human)": {"molecular_target": "MAP3K2 (human) (UniProt Q9Y2U5)", "sequence (Q9Y2U5 whole entry, looked up)": "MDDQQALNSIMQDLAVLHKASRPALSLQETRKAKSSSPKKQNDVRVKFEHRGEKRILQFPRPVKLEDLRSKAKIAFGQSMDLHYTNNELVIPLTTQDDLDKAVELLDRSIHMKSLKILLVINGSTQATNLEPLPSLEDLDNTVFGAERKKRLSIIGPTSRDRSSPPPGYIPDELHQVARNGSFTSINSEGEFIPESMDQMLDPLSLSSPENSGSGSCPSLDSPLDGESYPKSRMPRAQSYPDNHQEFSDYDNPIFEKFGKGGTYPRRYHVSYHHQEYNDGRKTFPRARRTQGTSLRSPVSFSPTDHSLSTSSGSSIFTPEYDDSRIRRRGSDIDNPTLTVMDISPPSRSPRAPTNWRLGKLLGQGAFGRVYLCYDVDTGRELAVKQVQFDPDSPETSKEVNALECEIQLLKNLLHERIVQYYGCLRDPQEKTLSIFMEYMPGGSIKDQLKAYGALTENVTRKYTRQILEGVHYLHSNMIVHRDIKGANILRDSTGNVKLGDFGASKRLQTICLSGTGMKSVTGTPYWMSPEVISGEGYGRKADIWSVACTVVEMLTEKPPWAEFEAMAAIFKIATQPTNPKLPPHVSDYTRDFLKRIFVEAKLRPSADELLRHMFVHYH"}, "MAP3K7 TAB1 (human)": {"molecular_target": "MAP3K7 TAB1 (human) (UniProt O43318+Q15750)"}, "MAP3K8 (human)": {"molecular_target": "MAP3K8 (human) (UniProt P41279)", "sequence (P41279 whole entry, looked up)": "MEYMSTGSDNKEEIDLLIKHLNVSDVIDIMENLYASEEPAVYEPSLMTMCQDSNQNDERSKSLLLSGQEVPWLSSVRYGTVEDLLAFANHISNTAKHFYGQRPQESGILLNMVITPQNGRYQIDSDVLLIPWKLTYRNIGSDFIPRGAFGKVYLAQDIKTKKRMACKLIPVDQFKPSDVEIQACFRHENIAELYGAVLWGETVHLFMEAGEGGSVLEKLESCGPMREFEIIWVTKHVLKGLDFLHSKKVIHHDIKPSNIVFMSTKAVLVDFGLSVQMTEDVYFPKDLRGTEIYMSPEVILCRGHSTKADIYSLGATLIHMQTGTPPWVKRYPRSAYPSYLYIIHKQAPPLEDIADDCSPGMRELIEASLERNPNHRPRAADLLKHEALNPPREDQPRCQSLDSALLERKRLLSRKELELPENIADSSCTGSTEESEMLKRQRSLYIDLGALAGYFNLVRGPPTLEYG"}, "MAPK10 (human)": {"molecular_target": "MAPK10 (human) (UniProt P53779)"}, "MAPK9 (human)": {"molecular_target": "MAPK9 (human) (UniProt P45984)", "sequence (P45984 whole entry, looked up)": "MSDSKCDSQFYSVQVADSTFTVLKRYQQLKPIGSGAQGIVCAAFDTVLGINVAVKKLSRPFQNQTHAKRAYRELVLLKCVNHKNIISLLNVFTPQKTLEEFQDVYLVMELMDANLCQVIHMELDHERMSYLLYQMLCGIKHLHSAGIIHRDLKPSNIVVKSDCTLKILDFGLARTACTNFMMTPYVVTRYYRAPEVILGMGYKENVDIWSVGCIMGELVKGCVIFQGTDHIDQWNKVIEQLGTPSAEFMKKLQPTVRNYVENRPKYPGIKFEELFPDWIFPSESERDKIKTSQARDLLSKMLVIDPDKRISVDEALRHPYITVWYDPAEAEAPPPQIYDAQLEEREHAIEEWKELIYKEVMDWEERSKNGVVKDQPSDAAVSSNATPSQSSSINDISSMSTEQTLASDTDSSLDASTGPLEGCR"}, "MARK3 (human)": {"molecular_target": "MARK3 (human) (UniProt P27448)"}, "MKNK2 (human)": {"molecular_target": "MKNK2 (human) (UniProt Q9HBH9)", "sequence (Q9HBH9 whole entry, looked up)": "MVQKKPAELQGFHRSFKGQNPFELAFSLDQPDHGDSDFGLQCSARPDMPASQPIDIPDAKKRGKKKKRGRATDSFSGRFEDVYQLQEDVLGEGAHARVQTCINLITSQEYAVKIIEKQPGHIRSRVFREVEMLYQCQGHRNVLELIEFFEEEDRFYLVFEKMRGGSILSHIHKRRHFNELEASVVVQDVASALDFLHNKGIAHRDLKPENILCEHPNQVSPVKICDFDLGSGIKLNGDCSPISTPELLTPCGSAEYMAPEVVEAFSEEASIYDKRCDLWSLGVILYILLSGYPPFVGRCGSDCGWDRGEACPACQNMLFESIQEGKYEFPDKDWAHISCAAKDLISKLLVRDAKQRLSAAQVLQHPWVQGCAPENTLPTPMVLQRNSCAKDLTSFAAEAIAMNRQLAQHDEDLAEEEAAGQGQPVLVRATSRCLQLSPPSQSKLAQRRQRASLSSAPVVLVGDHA"}, "MLTK (human)": {"molecular_target": "MLTK (human) (UniProt Q9NYL2)"}, "MYLK2 (human)": {"molecular_target": "MYLK2 (human) (UniProt Q9H1R3)", "sequence (Q9H1R3 whole entry, looked up)": "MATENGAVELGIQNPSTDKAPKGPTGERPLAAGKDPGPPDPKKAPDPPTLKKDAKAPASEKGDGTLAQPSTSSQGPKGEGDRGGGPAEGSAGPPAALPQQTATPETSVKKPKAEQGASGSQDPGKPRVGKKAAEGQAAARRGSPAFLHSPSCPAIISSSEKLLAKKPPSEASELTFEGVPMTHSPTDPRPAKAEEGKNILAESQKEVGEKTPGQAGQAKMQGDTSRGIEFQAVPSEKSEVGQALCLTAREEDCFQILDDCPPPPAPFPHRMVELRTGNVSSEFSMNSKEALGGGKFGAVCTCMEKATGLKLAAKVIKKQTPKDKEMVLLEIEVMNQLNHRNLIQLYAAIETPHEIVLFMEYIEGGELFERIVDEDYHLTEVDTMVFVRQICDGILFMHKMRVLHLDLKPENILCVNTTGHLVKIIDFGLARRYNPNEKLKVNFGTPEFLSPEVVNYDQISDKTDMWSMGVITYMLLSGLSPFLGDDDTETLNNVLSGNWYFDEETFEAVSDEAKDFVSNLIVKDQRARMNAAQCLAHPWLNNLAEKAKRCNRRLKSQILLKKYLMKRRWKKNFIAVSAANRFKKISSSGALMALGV"}, "NTRK1 (human)": {"molecular_target": "NTRK1 (human) (UniProt P04629)"}, "NUAK2 (human)": {"molecular_target": "NUAK2 (human) (UniProt Q9H093)"}, "PKN2 (human)": {"molecular_target": "PKN2 (human) (UniProt Q16513)"}, "PLK3 (human)": {"molecular_target": "PLK3 (human) (UniProt Q9H4B4)"}, "PRKACA (human)": {"molecular_target": "PRKACA (human) (UniProt P17612)"}, "PRKCG (human)": {"molecular_target": "PRKCG (human) (UniProt P05129)"}, "PTK2 (human)": {"molecular_target": "PTK2 (human) (UniProt Q05397)"}, "RPS6KA1 KD1 KD2 (human)": {"molecular_target": "RPS6KA1 KD1 KD2 (human) (UniProt Q15418)", "sequence (Q15418 whole entry, looked up)": "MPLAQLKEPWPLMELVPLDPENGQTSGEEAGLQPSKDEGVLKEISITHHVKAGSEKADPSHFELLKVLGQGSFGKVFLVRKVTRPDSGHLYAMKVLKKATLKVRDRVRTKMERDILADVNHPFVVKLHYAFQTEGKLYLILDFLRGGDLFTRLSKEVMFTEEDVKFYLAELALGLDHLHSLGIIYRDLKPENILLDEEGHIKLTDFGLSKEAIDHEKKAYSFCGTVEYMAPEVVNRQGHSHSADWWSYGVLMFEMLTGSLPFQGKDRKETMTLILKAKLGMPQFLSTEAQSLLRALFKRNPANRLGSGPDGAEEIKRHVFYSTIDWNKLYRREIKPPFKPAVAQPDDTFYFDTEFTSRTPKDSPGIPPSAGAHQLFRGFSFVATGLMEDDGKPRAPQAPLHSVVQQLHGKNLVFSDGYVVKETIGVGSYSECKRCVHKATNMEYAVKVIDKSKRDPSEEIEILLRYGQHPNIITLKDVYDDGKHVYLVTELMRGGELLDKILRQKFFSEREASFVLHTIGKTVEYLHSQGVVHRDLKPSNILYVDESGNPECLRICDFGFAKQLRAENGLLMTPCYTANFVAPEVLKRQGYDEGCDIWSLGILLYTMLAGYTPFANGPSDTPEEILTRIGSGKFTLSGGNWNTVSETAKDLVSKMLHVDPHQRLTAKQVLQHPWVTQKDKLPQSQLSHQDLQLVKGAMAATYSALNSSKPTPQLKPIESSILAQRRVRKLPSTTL"}, "RPS6KA2 KD1 KD2 (human)": {"molecular_target": "RPS6KA2 KD1 KD2 (human) (UniProt Q15349)"}, "RPS6KA4 KD2 (human)": {"molecular_target": "RPS6KA4 KD2 (human) (UniProt O75676)"}, "SRPK3 (human)": {"molecular_target": "SRPK3 (human) (UniProt Q9UPE1)"}, "TEK (human)": {"molecular_target": "TEK (human) (UniProt Q02763)"}, "TTK (human)": {"molecular_target": "TTK (human) (UniProt P33981)"}, "ZAP70 (human)": {"molecular_target": "ZAP70 (human) (UniProt P43403)"}}}
{"smiles": "Cn1nc2c3c(cccc31)C(=O)c1ccccc1-2", "values": [{"measurement": "residual activity", "setting": "ABL2 (human)", "value": 97.8, "unit": "%"}, {"measurement": "residual activity", "setting": "AKT3 (human)", "value": 102, "unit": "%"}, {"measurement": "residual activity", "setting": "ALK (human)", "value": 87.4, "unit": "%"}, {"measurement": "residual activity", "setting": "CAMK2A (human)", "value": 106, "unit": "%"}, {"measurement": "residual activity", "setting": "CDK5 CDK5R1 p25 (human)", "value": 92.2, "unit": "%"}, {"measurement": "residual activity", "setting": "CDK6 CCND3 (human)", "value": 101, "unit": "%"}, {"measurement": "residual activity", "setting": "CDK9 CCNT1 (human)", "value": 94.7, "unit": "%"}, {"measurement": "residual activity", "setting": "CHEK2 (human)", "value": 89.8, "unit": "%"}, {"measurement": "residual activity", "setting": "CSNK1A1 (human)", "value": 47.8, "unit": "%"}, {"measurement": "residual activity", "setting": "DAPK2 (human)", "value": 104, "unit": "%"}, {"measurement": "residual activity", "setting": "EPHA7 (human)", "value": 104, "unit": "%"}, {"measurement": "residual activity", "setting": "EPHB2 (human)", "value": 104, "unit": "%"}, {"measurement": "residual activity", "setting": "ERBB2 (human)", "value": 96.9, "unit": "%"}, {"measurement": "residual activity", "setting": "FGR (human)", "value": 93.4, "unit": "%"}, {"measurement": "residual activity", "setting": "GSK3A (human)", "value": 91.1, "unit": "%"}, {"measurement": "residual activity", "setting": "HCK (human)", "value": 94.6, "unit": "%"}, {"measurement": "residual activity", "setting": "HIPK4 (human)", "value": 102, "unit": "%"}, {"measurement": "residual activity", "setting": "MAP3K14 (human)", "value": 107, "unit": "%"}, {"measurement": "residual activity", "setting": "MAP3K2 (human)", "value": 103, "unit": "%"}, {"measurement": "residual activity", "setting": "MAP3K7 TAB1 (human)", "value": 83.9, "unit": "%"}, {"measurement": "residual activity", "setting": "MAP3K8 (human)", "value": 94.3, "unit": "%"}, {"measurement": "residual activity", "setting": "MAPK10 (human)", "value": 97.3, "unit": "%"}, {"measurement": "residual activity", "setting": "MAPK9 (human)", "value": 85.2, "unit": "%"}, {"measurement": "residual activity", "setting": "MARK3 (human)", "value": 96.6, "unit": "%"}, {"measurement": "residual activity", "setting": "MKNK2 (human)", "value": 94.1, "unit": "%"}, {"measurement": "residual activity", "setting": "MLTK (human)", "value": 83.1, "unit": "%"}, {"measurement": "residual activity", "setting": "MYLK2 (human)", "value": 78.8, "unit": "%"}, {"measurement": "residual activity", "setting": "NTRK1 (human)", "value": 95, "unit": "%"}, {"measurement": "residual activity", "setting": "NUAK2 (human)", "value": 85.7, "unit": "%"}, {"measurement": "residual activity", "setting": "PKN2 (human)", "value": 97.3, "unit": "%"}, {"measurement": "residual activity", "setting": "PLK3 (human)", "value": 96.2, "unit": "%"}, {"measurement": "residual activity", "setting": "PRKACA (human)", "value": 104, "unit": "%"}, {"measurement": "residual activity", "setting": "PRKCG (human)", "value": 90.6, "unit": "%"}, {"measurement": "residual activity", "setting": "PTK2 (human)", "value": 92.8, "unit": "%"}, {"measurement": "residual activity", "setting": "RPS6KA1 KD1 KD2 (human)", "value": 93.7, "unit": "%"}, {"measurement": "residual activity", "setting": "RPS6KA2 KD1 KD2 (human)", "value": 93.5, "unit": "%"}, {"measurement": "residual activity", "setting": "RPS6KA4 KD2 (human)", "value": 105, "unit": "%"}, {"measurement": "residual activity", "setting": "SRPK3 (human)", "value": 96.3, "unit": "%"}, {"measurement": "residual activity", "setting": "TEK (human)", "value": 98.2, "unit": "%"}, {"measurement": "residual activity", "setting": "TTK (human)", "value": 77.7, "unit": "%"}, {"measurement": "residual activity", "setting": "ZAP70 (human)", "value": 95.1, "unit": "%"}]}
{"smiles": "O=C1NC(=O)C(c2cn(CCCO)c3ncccc23)=C1c1cnccn1", "values": [{"measurement": "residual activity", "setting": "ABL2 (human)", "value": 83.7, "unit": "%"}, {"measurement": "residual activity", "setting": "AKT3 (human)", "value": 101, "unit": "%"}, {"measurement": "residual activity", "setting": "ALK (human)", "value": 105, "unit": "%"}, {"measurement": "residual activity", "setting": "CAMK2A (human)", "value": 108, "unit": "%"}, {"measurement": "residual activity", "setting": "CDK5 CDK5R1 p25 (human)", "value": 103, "unit": "%"}, {"measurement": "residual activity", "setting": "CDK6 CCND3 (human)", "value": 84.4, "unit": "%"}, {"measurement": "residual activity", "setting": "CDK9 CCNT1 (human)", "value": 88.3, "unit": "%"}, {"measurement": "residual activity", "setting": "CHEK2 (human)", "value": 97.7, "unit": "%"}, {"measurement": "residual activity", "setting": "CSNK1A1 (human)", "value": 67, "unit": "%"}, {"measurement": "residual activity", "setting": "DAPK2 (human)", "value": 88.4, "unit": "%"}, {"measurement": "residual activity", "setting": "EPHA7 (human)", "value": 105, "unit": "%"}, {"measurement": "residual activity", "setting": "EPHB2 (human)", "value": 78.3, "unit": "%"}, {"measurement": "residual activity", "setting": "ERBB2 (human)", "value": 106, "unit": "%"}, {"measurement": "residual activity", "setting": "FGR (human)", "value": 108, "unit": "%"}, {"measurement": "residual activity", "setting": "GSK3A (human)", "value": 8.56, "unit": "%"}, {"measurement": "residual activity", "setting": "HCK (human)", "value": 63.4, "unit": "%"}, {"measurement": "residual activity", "setting": "HIPK4 (human)", "value": 104, "unit": "%"}, {"measurement": "residual activity", "setting": "MAP3K14 (human)", "value": 78.1, "unit": "%"}, {"measurement": "residual activity", "setting": "MAP3K2 (human)", "value": 96.9, "unit": "%"}, {"measurement": "residual activity", "setting": "MAP3K7 TAB1 (human)", "value": 95.5, "unit": "%"}, {"measurement": "residual activity", "setting": "MAP3K8 (human)", "value": 97, "unit": "%"}, {"measurement": "residual activity", "setting": "MAPK10 (human)", "value": 88, "unit": "%"}, {"measurement": "residual activity", "setting": "MAPK9 (human)", "value": 100, "unit": "%"}, {"measurement": "residual activity", "setting": "MARK3 (human)", "value": 87.8, "unit": "%"}, {"measurement": "residual activity", "setting": "MKNK2 (human)", "value": 69.1, "unit": "%"}, {"measurement": "residual activity", "setting": "MLTK (human)", "value": 96.4, "unit": "%"}, {"measurement": "residual activity", "setting": "MYLK2 (human)", "value": 81.1, "unit": "%"}, {"measurement": "residual activity", "setting": "NTRK1 (human)", "value": 88.1, "unit": "%"}, {"measurement": "residual activity", "setting": "NUAK2 (human)", "value": 92.3, "unit": "%"}, {"measurement": "residual activity", "setting": "PKN2 (human)", "value": 83.3, "unit": "%"}, {"measurement": "residual activity", "setting": "PLK3 (human)", "value": 91.1, "unit": "%"}, {"measurement": "residual activity", "setting": "PRKACA (human)", "value": 87.7, "unit": "%"}, {"measurement": "residual activity", "setting": "PRKCG (human)", "value": 93.1, "unit": "%"}, {"measurement": "residual activity", "setting": "PTK2 (human)", "value": 101, "unit": "%"}, {"measurement": "residual activity", "setting": "RPS6KA1 KD1 KD2 (human)", "value": 94.8, "unit": "%"}, {"measurement": "residual activity", "setting": "RPS6KA2 KD1 KD2 (human)", "value": 73.2, "unit": "%"}, {"measurement": "residual activity", "setting": "RPS6KA4 KD2 (human)", "value": 101, "unit": "%"}, {"measurement": "residual activity", "setting": "SRPK3 (human)", "value": 91.2, "unit": "%"}, {"measurement": "residual activity", "setting": "TEK (human)", "value": 103, "unit": "%"}, {"measurement": "residual activity", "setting": "TTK (human)", "value": 94.5, "unit": "%"}, {"measurement": "residual activity", "setting": "ZAP70 (human)", "value": 87.8, "unit": "%"}]}
